Laboratory results from patent US5508311A, “Aliphatic propargylamines as selective MAO-B inhibitors and as neuroprotective agents” (University of Saskatchewan, priority 1993, dated 1996).
Structures can show the parent of a compound that is named as a salt. Where two headings read alike, the source gives them in different places.

Experiments:
monoamine oxidase = test: Inhibition of rat liver monoamine oxidase deamination of dopamine (DA, mixed-type MAO A and B substrate) in vitro; format: biochemical; conditions: substrate DA (5 × 10^-4 M), average of at least 3 independent experiments
Procedure: (§1) The aliphatic propargylamine inhibitors (from 1×10^-10 M to 1×10^-4 M) were preincubated with the MAO for 20 min. at ambient room temperature and then the residual enzyme activities were determined by addition of the substrates, followed by further incubation at 37° C. for 30 min. The enzymatic reactions were terminated by the addition of citric acid and the aldehyde products were extracted with toluene: ethyl acetate (1:1, v/v) and the radio-activities assessed in a scintillation counter.

MAO-B [1] = target: T1, MAO-B (Rattus norvegicus, UniProt P19643); test: biochemical; format: biochemical; conditions: for IC50: read-out: PE IC50
T1 sequence (P19643 1-520): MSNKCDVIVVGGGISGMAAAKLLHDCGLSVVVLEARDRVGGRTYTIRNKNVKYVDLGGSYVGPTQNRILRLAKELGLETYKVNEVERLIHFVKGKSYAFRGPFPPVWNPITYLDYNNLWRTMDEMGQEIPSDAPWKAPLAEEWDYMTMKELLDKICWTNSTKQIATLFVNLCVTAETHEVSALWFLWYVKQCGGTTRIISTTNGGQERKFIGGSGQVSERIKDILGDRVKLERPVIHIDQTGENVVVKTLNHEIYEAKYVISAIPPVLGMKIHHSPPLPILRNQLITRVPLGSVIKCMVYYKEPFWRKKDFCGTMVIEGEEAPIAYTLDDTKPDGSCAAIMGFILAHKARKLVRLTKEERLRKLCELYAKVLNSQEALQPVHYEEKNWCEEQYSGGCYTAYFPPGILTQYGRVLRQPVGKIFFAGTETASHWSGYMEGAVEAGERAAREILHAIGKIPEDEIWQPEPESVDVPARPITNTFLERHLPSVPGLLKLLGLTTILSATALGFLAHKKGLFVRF
Procedure: as §1

MAO-A [2] = target: T2, MAO-A (Rattus norvegicus, UniProt P21396); test: biochemical; format: biochemical; conditions: substrate 5-HT (5 × 10^-4 M); rat liver MAO, in vitro; average of at least 3 independent experiments
T2 sequence (P21396 1-526): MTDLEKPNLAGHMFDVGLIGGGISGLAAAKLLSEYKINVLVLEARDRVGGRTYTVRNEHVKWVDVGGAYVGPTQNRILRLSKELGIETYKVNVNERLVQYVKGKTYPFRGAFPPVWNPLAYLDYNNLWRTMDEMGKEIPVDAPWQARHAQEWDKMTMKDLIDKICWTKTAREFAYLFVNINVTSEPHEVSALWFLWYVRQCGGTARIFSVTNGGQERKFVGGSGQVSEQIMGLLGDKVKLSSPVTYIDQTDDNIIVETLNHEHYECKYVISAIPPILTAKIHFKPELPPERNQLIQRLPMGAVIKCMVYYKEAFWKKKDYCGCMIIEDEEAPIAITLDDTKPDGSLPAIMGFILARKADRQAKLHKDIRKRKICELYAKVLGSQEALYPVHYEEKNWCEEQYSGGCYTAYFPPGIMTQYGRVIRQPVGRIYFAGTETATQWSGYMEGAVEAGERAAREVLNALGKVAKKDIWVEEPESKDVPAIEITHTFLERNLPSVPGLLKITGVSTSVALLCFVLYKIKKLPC
Procedure: as §1

Solubility in water = conditions: free base
[3] = mouse, in vivo
Excerpt: The acute toxicity of these compounds is quite low. […]. The aliphatic side-chains of these aliphatic propargyl compounds are similar to those that exist in endogenous lipids and fatty acids and such aliphatic chains are readily oxidized in vivo. […]

[4] = human, in vivo; cited from earlier work
dopamine neurons [5] = conditions: animal study (Tatton); cited from earlier work
Parkinson's disease = conditions: Deprenyl alone; cited from earlier work
[6] = reported; cited from earlier work
MAO-A [7] = target: T3, MAO-A (Mus musculus, UniProt Q64133); test: in vivo; conditions: ip, read-out: 5-HT ID50
T3 construct: MAO activities in the mouse brain after; from tissue
T3 sequence (Q64133 1-526): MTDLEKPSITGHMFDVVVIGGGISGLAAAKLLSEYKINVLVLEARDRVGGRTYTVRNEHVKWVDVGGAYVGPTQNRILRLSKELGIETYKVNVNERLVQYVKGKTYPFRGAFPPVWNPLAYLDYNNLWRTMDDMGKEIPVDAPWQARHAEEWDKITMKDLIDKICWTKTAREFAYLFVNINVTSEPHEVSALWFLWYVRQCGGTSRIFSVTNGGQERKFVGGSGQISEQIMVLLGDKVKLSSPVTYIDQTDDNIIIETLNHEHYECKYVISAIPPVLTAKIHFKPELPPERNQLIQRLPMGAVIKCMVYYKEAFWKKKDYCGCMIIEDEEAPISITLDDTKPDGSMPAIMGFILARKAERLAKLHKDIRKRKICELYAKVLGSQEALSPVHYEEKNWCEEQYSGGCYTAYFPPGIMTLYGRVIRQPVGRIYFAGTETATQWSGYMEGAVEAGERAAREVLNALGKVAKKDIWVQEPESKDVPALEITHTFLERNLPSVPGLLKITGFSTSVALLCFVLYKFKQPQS
Procedure: (§2) Albino Swiss mice were used in this study. The animals were injected intraperitoneally with different doses of the aliphatic propargylamines in 100 μL saline.
(§3) 0.5, 1, 2, 5, 10, 20, 50, 100 mg/Kg. Striata were dissected from the brai
(§4) two hours after i.p. administration of the drugs. MAOA and MAOB activitie
(§5) were determined immediately. The values were estimated from doseresponse

MAO-B [8] = target: T4, MAO-B (Mus musculus, UniProt Q8BW75); test: in vivo; format: in vivo; conditions: for ED50: read-out: PE ID50; for Ratio MAO-A/MAO-B: 120 min
T4 construct: MAO activities in the mouse brain after; from tissue
T4 sequence (Q8BW75 1-520): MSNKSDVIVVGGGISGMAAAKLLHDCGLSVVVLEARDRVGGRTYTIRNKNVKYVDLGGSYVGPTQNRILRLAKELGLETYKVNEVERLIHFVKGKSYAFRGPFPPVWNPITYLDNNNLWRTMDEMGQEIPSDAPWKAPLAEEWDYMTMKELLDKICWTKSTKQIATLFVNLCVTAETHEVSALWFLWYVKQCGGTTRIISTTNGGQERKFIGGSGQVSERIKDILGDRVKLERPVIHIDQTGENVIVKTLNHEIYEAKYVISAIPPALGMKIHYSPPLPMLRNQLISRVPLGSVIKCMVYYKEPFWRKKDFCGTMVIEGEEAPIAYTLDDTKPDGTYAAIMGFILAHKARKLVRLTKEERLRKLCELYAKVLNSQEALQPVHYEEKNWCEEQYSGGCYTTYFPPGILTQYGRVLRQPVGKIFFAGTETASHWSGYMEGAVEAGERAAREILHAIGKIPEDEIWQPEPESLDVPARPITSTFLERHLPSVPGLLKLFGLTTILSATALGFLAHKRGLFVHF
Procedure: as §2, §3, §4, §5

MAO-B [9] = target: T4, MAO-B; test: MAO-B activity in the mouse brain after oral administration (substrate PE); format: in vivo; conditions: 2 hours; for ED50: mouse, oral, average of 5 animals per dose, estimated from dose response curves, read-out: Inhibition of MAO-B activity, dose response (ID50); for Relative activity PE: oral 10 mg/Kg, PE (1.9 × 10^-5 M), mean ± standard error, saline = 100
Procedure: (§6) Table 3 indicates the MAO activities in the mouse brain following oral administration of the aliphatic propargylamines.
(§7) of each compound. Striata were dissected from the brain two hours after
(§8) the administration of the drugs. MAOA and MAOB activities were determined
Striata were dissected from the brain two
hours after oral administration of the drugs. MAOB activities were then
determined immediately. The values were estimated from doseresponse

noradrenaline neurons = test: Protection of noradrenaline neurons against DSP-4 induced neurotoxicity in the mouse brain; format: in vivo; conditions: Experiment II, pretreatment 10 mg/Kg i.p., mean ± S.E.
Procedure: The analyses of DSP-4-induced neurotoxic effects were conducted in accordance with […] and Jonsson (Eur. J. Pharmacol. 103 (1984), 269-278), hereby incorporated by reference. Mice were pretreated with M-2-PP (10 mg/Kg) and 2-HxMP (10 mg/Kg) or saline as control via i.p. administration and one hour later challenged with a single i.p. dose of DSP-4 (DSP-4: […] One week after treatment noradrenaline content in the putamen of these mice was analyzed. The results which are shown in Table 5 are mean ± S.E. of five animals in each group.

MAO-A [10] = target: T3, MAO-A; format: in vivo
Procedure: as §6, §7, §8

dopamine neurons [11] = test: Protection of dopamine neurons against MPTP-induced neurotoxicity in the mice brain; format: in vivo, mouse
Excerpt: Three days later, dopamine levels and dopamine uptake site densities (GBR bindings) were estimated.

[12] = ID50 i.p. in mice versus IC50 in vitro
[13] = mouse, ip, 2 hours after administration, […], estimated from dose response curves
[14] = 2 hours after administration, 5-HT 5 × 10^-4 M, estimated from dose response curves

In the case of `C#CCNC` [MP, N-Methylpropargylamine-HCl], the “DA IC50” value (monoamine oxidase) is reported as “inactive”, the “PE IC50” value (MAO-B [1]) is reported as “inactive” and the “5-HT IC50” value (MAO-A [2]) is reported as “inactive”. For the same molecule, the solubility in water (Solubility in water) was “infinite”.

For `C#CCN(C)C(C)CC.Cl.O=C(O)C(=O)O` (racemic) [Example 2-BuMP, N-(2-Butyl)-N-methylpropargylamine hydrochloride and oxalate], the “fatality after oral administration” value [3] was “no fatality”.

For `CC(C)NNC(=O)c1ccncc1` [Iproniazid], the “adverse effects leading to withdrawal” value [4] is given as “hepatic toxicity and occasional hypertensive crises”.

In the case of `C#CCN(C)[C@H](C)Cc1ccccc1` [Deprenyl], the “protection of dopamine neurons after MPTP washed out” value (dopamine neurons [5]) is listed as “shown to protect dopamine neurons even after the MPTP has been completely washed out of the tissues”, the “onset of disability in early, otherwise untreated Parkinson's disease” value (Parkinson's disease) is listed as “can significantly delay the onset of disability” and the IC50 (monoamine oxidase) is listed as 0.3 µM. For the same molecule, the LD50 [6] was 445 mg/kg and the ED50 (MAO-A [7]; 2 h) was 25 mg/kg.

In the case of `C#CCN(C)C(C)CCCC.Cl` (stereo not drawn) [Example 2-HxMP, N-(2-Hexyl)-N-methylpropargylamine hydrochloride], the “MAO-B ID50 (mg/Kg) / IC50 ([…] × 10^-6 M)” value (MAO-B [8]; [12]) is reported as 2 (mg/Kg)/(1 × 10^-6 M), the ED50 (MAO-B [8]; [13]) is reported as 0.2 mg/kg and the “Ratio MAO-A/MAO-B” value (MAO-B [8]; ratio of ID50 values, i.p.) is reported as 200. The “Ratio MAO-A/MAO-B” value (MAO-B [1]; ratio of IC50 values, in vitro) was 1000, the IC50 (MAO-B [1]) was 0.1 µM and the IC50 (MAO-A [2]) was 100 µM. The ED50 (MAO-B [9]) was 1 mg/kg, the ED50 (MAO-A [7]; [14]) was 40 mg/kg and the Noradrenaline in putamen (noradrenaline neurons; DSP-4 50 mg/Kg, p < 0.01 vs DSP-4 (DSP-4 alone 56)) was 84 ± 0.04%. The Noradrenaline in putamen (noradrenaline neurons; saline, no DSP-4) was 104 ± 0.05%.

For `C#CCN(C)CCCC.Cl` [Example 1-BuMP, N-(1-Butyl)-N-methylpropargylamine hydrochloride], the “fatality after oral administration” value [3] was “no fatality”, the “MAO-B ID50 (mg/Kg) / IC50 ([…] × 10^-6 M)” value (MAO-B [8]; [12]) was 2 (mg/Kg)/(1 × 10^-6 M) and the “inhibition of brain MAO-B activity in vivo (in words)” value (MAO-B [8]; mouse, i.p., two hours after treatment) was “more potent than the longer chain analogs at inhibiting brain MAO-B activity”. The ED50 (MAO-B [8]; [13]) was 2 mg/kg, the “Ratio MAO-A/MAO-B” value (MAO-B [8]; ratio of ID50 values, i.p.) was 50 and the “Ratio MAO-A/MAO-B” value (MAO-B [1]; ratio of IC50 values, in vitro) was 100. The IC50 (MAO-B [1]) was 1 µM, the IC50 (MAO-A [2]) was 100 µM and the ED50 (MAO-B [9]) was 15 mg/kg. For the same molecule, the “Relative activity PE” value (MAO-B [9]) was 67 ± 9%, the ED50 (MAO-A [7]; [14]) was 100 mg/kg and the “Relative activity 5-HT” value (MAO-A [10]; oral 10 mg/Kg, 2 hours, 5-HT (5 × 10^-4 M), mean ± standard error, saline = 100) was 98 ± 5%.

With `C#CCN(C)CCCCC.O=C(O)C(=O)O` [Example M-1-PP, N-(1-Pentyl)-N-methylpropargylamine oxalate] the “fatality after oral administration” value [3] was “no fatality”, the “MAO-B ID50 (mg/Kg) / IC50 ([…] × 10^-6 M)” value (MAO-B [8]; mouse, in vivo, ip) was 6.6 and the “inhibition of brain MAO-B activity in vivo (in words)” value (MAO-B [8]; mouse, in vivo, ip) was “more potent than the longer chain analogs at inhibiting brain MAO-B activity”. For the same molecule, the “Ratio MAO-A/MAO-B” value (MAO-B [8]; mouse, in vivo, ip) was 50, the ED50 (MAO-B [8]; mouse, ip, 2 h) was 2 mg/kg and the “Ratio MAO-A/MAO-B” value (MAO-B [1]; rat, liver mitochondrial membranes) was 200. The IC50 (MAO-B [1]) was 0.4 µM, the IC50 (MAO-A [2]) was 100 µM and the “Relative activity PE” value (MAO-B [9]) was 72 ± 17%. For the same molecule, the ED50 (MAO-A [7]; 2 h) was 100 mg/kg, the “Relative activity 5-HT” value (MAO-A [10]; mouse, in vivo, po, 10 mg/kg) was 97 ± 13 and the Dopamine (dopamine neurons [11]; 2.0 mg/Kg + MPTP) was 3.1 μg/gm. For the same molecule, the Dopamine binding site (dopamine neurons [11]; 2.0 mg/Kg + MPTP) was 221 pmol/mg, the Dopamine (dopamine neurons [11]; 10 mg/Kg + MPTP) was 9.0 μg/gm and the Dopamine binding site (dopamine neurons [11]; 10 mg/Kg + MPTP) was 320 pmol/mg.
